According to patent US20130212744A1, “METHOD OF REDUCING INSECT-VECTORED VIRAL INFECTIONS” (priority 2010, published 2013):
Where two headings read alike, the source gives them in different places.

Key:
Assay type in all cases: in vivo
[1] = test system: whitefly Bemisia tabaci nymphs; test: Foliar use field trial on tomato, efficacy on whitefly nymphs; details: Bemisia tabaci, foliar
Description: (§1) Two studies were carried out in Elhasanya, Egypt in 2009 on tomato plants of the variety Fayrouz with the main goal to measure efficacy on the whitefly Bemisia tabaci. The plot size was 4.8 m^2 and 6 replicates were used in the trial. Products were applied 3 times on young tomato plants at BBCH stages 14, 17 and 51 at spray intervals between 12 and 19 days. The spray volume was at the first application 350 l/ha and later 500 l/ha. The evaluation of this study was done counting the adult whiteflies (Bemisia tabaci) as well as the nymphs and the eggs in each plot. In addition to the direct whitefly effect, visual symptoms of the virus, mainly TYLCV (tomato yellow leaf curl virus) were evaluated also.
(§2) ASM=Acibenzolar-S-methyl. WG 50=Actigard® 50WG, a water-dispersible granule with the active ingredient ASM CYNT=Cyantraniliprole. WG 40=Cyazypyr®, a water dispersable granule with the active ingredient CYNT. Results on whitefly adults. Trial 1

[2] = test system: TYLCV (tomato yellow leaf curl virus); test: Foliar use field trial on tomato, infected leaf area by TYLC virus
Description: as §1, §2
Evaluation of percentage of infected leaf area by TYLC virus (average of 45 plants evaluated per treatment) Trial 1

[3] = test system: whitefly Bemisia tabaci adults; test: Soil use (drench) field trial on tomato, efficacy on whitefly adults; details: for Emax at 12.5 g/ha: 12.5 g ai/ha; for Emax at 25 g/ha: 25 g ai/ha
Description: as §1, with “Two soil applied” for “Two”, “plants” for “plants of the variety Fayrouz”, “once” for “3 times”, “stage 14 as a drench.” for “stages 14, 17 and 51 at spray intervals between 12 and 19 days.”, “350” for “350 l/ha and later 500”

[4] = test system: whitefly Bemisia tabaci nymphs; test: Soil use (drench) field trial on tomato, efficacy on whitefly nymphs; details: for Emax at 12.5 g/ha: 12.5 g ai/ha; for Emax at 25 g/ha: 25 g ai/ha
Description: Two soil applied studies were carried out in Elhasanya, Egypt in 2009 on tomato plants with the main goal to measure efficacy on the whitefly Bemisia tabaci. The plot size was 4.8 m^2 and 6 replicates were used in the trial. […] The spray volume was at the first application 350 l/ha. The evaluation of this study was done counting the adult whiteflies (Bemisia tabaci) as well as the nymphs and the eggs in each plot. In addition to the direct whitefly effect, visual symptoms of the virus, mainly TYLCV (tomato yellow leaf curl virus) were evaluated also.

CSC(=O)c1cccc2nnsc12 [ASM, S-methyl benzo[1,2,3]thiadiazole-7-carbothioate]
Emax ([1]; 12.5 g ai/hl, 5DAA2, Trial 1, read-out: % Efficacy on Nymphs): 5%
Emax ([1]; 12.5 g ai/hl, 5DAA2, Trial 2, read-out: % Efficacy on Nymphs): 5%
Emax ([1]; 12.5 g ai/hl, 5DAA3, Trial 1, read-out: % Efficacy on Nymphs): 62%
Emax ([1]; 12.5 g ai/hl, 5DAA3, Trial 2, read-out: % Efficacy on Nymphs): 62%
Emax ([1]; 12.5 g ai/hl, 10DAA2, Trial 1, read-out: % Efficacy on Nymphs): 52%
Emax ([1]; 12.5 g ai/hl, 10DAA2, Trial 2, read-out: % Efficacy on Nymphs): 52%
Emax ([1]; 12.5 g ai/hl, 10DAA3, Trial 1, read-out: % Efficacy on Nymphs): 46%
Emax ([1]; 12.5 g ai/hl, 10DAA3, Trial 2, read-out: % Efficacy on Nymphs): 46%
Emax ([1]; 12.5 g ai/hl, 15DAA3, Trial 1, read-out: % Efficacy on Nymphs): 42%
Emax ([1]; 12.5 g ai/hl, 15DAA3, Trial 2, read-out: % Efficacy on Nymphs): 42%
Emax ([1]; 12.5 g ai/hl, 20DAA3, Trial 1, read-out: % Efficacy on Nymphs): 27%
Emax ([1]; 12.5 g ai/hl, 20DAA3, Trial 2, read-out: % Efficacy on Nymphs): 27%
Emax ([1]; 12.5 g ai/hl, Avg, Trial 1, read-out: % Efficacy on Nymphs Avg % C): 39%
Emax ([1]; 25 g ai/hl, 5DAA2, Trial 1, read-out: % Efficacy on Nymphs): 57%
Emax ([1]; 25 g ai/hl, 5DAA2, Trial 2, read-out: % Efficacy on Nymphs): 57%
Emax ([1]; 25 g ai/hl, 5DAA3, Trial 1, read-out: % Efficacy on Nymphs): 66%
Emax ([1]; 25 g ai/hl, 5DAA3, Trial 2, read-out: % Efficacy on Nymphs): 66%
Emax ([1]; 25 g ai/hl, 10DAA2, Trial 1, read-out: % Efficacy on Nymphs): 65%
Emax ([1]; 25 g ai/hl, 10DAA2, Trial 2, read-out: % Efficacy on Nymphs): 65%
Emax ([1]; 25 g ai/hl, 10DAA3, Trial 1, read-out: % Efficacy on Nymphs): 53%
Emax ([1]; 25 g ai/hl, 10DAA3, Trial 2, read-out: % Efficacy on Nymphs): 53%
Emax ([1]; 25 g ai/hl, 15DAA3, Trial 1, read-out: % Efficacy on Nymphs): 55%
Emax ([1]; 25 g ai/hl, 15DAA3, Trial 2, read-out: % Efficacy on Nymphs): 55%
Emax ([1]; 25 g ai/hl, 20DAA3, Trial 1, read-out: % Efficacy on Nymphs): 39%
Emax ([1]; 25 g ai/hl, 20DAA3, Trial 2, read-out: % Efficacy on Nymphs): 39%
Emax ([1]; 25 g ai/hl, Avg, Trial 1, read-out: % Efficacy on Nymphs Avg % C): 56%
% Infected Surface area with virus / plant ([2]; 12.5 g ai/hl, 5DAA2, Trial 1): 0.0%
% Infected Surface area with virus / plant ([2]; 12.5 g ai/hl, 5DAA2, Trial 2): 0.0%
% Infected Surface area with virus / plant ([2]; 12.5 g ai/hl, 5DAA3, Trial 1): 1.0%
% Infected Surface area with virus / plant ([2]; 12.5 g ai/hl, 5DAA3, Trial 2): 1.0%
% Infected Surface area with virus / plant ([2]; 12.5 g ai/hl, 10DAA3, Trial 1): 9.6%
% Infected Surface area with virus / plant ([2]; 12.5 g ai/hl, 10DAA3, Trial 2): 9.6%
% Infected Surface area with virus / plant ([2]; 12.5 g ai/hl, 15DAA3, Trial 1): 9.9%
% Infected Surface area with virus / plant ([2]; 12.5 g ai/hl, 15DAA3, Trial 2): 9.9%
% Infected Surface area with virus / plant ([2]; 12.5 g ai/hl, 20DAA3, Trial 1): 10.7%
% Infected Surface area with virus / plant ([2]; 12.5 g ai/hl, 20DAA3, Trial 2): 10.7%
% Infected Surface area with virus / plant ([2]; 12.5 g ai/hl, 24DAA3, Trial 1): 14.4%
% Infected Surface area with virus / plant ([2]; 12.5 g ai/hl, 24DAA3, Trial 2): 14.4%
% Infected Surface area with virus / plant ([2]; 25 g ai/hl, 5DAA2, Trial 1): 0.0%
% Infected Surface area with virus / plant ([2]; 25 g ai/hl, 5DAA2, Trial 2): 0.0%
% Infected Surface area with virus / plant ([2]; 25 g ai/hl, 5DAA3, Trial 1): 0.0%
% Infected Surface area with virus / plant ([2]; 25 g ai/hl, 5DAA3, Trial 2): 0.0%
% Infected Surface area with virus / plant ([2]; 25 g ai/hl, 10DAA3, Trial 1): 3.3%
% Infected Surface area with virus / plant ([2]; 25 g ai/hl, 10DAA3, Trial 2): 3.3%
% Infected Surface area with virus / plant ([2]; 25 g ai/hl, 15DAA3, Trial 1): 4.7%
% Infected Surface area with virus / plant ([2]; 25 g ai/hl, 15DAA3, Trial 2): 4.7%
% Infected Surface area with virus / plant ([2]; 25 g ai/hl, 20DAA3, Trial 1): 5.0%
% Infected Surface area with virus / plant ([2]; 25 g ai/hl, 20DAA3, Trial 2): 5.0%
% Infected Surface area with virus / plant ([2]; 25 g ai/hl, 24DAA3, Trial 1): 7.2%
% Infected Surface area with virus / plant ([2]; 25 g ai/hl, 24DAA3, Trial 2): 7.2%
Emax at 12.5 g/ha ([3]; 120 h, 5DAA, Trial 1): 40%
Emax at 12.5 g/ha ([3]; 120 h, 5DAA, Trial 2): 29%
Emax at 25 g/ha ([3]; 120 h, 5DAA, Trial 1): 50%
Emax at 25 g/ha ([3]; 120 h, 5DAA, Trial 2): 36%
Emax at 12.5 g/ha ([3]; 240 h, 10DAA, Trial 1): 41%
Emax at 12.5 g/ha ([3]; 240 h, 10DAA, Trial 2): 34%
Emax at 25 g/ha ([3]; 240 h, 10DAA, Trial 1): 44%
Emax at 25 g/ha ([3]; 240 h, 10DAA, Trial 2): 45%
Emax at 12.5 g/ha ([3]; 360 h, 15DAA, Trial 1): 58%
Emax at 12.5 g/ha ([3]; 360 h, 15DAA, Trial 2): 35%
Emax at 25 g/ha ([3]; 360 h, 15DAA, Trial 1): 64%
Emax at 25 g/ha ([3]; 360 h, 15DAA, Trial 2): 45%
Emax at 12.5 g/ha ([3]; 480 h, 20DAA, Trial 1): 39%
Emax at 12.5 g/ha ([3]; 480 h, 20DAA, Trial 2): 31%
Emax at 25 g/ha ([3]; 480 h, 20DAA, Trial 1): 42%
Emax at 25 g/ha ([3]; 480 h, 20DAA, Trial 2): 43%
Emax at 12.5 g/ha ([3]; 600 h, 25DAA, Trial 1): 29%
Emax at 12.5 g/ha ([3]; 600 h, 25DAA, Trial 2): 25%
Emax at 25 g/ha ([3]; 600 h, 25DAA, Trial 1): 31%
Emax at 25 g/ha ([3]; 600 h, 25DAA, Trial 2): 35%
Emax at 12.5 g/ha ([3]; 720 h, 30DAA, Trial 1): 22%
Emax at 12.5 g/ha ([3]; 720 h, 30DAA, Trial 2): 19%
Emax at 25 g/ha ([3]; 720 h, 30DAA, Trial 1): 26%
Emax at 25 g/ha ([3]; 720 h, 30DAA, Trial 2): 30%
Emax at 12.5 g/ha ([3]; 840 h, 35DAA, Trial 1): 14%
Emax at 12.5 g/ha ([3]; 840 h, 35DAA, Trial 2): 12%
Emax at 25 g/ha ([3]; 840 h, 35DAA, Trial 1): 26%
Emax at 25 g/ha ([3]; 840 h, 35DAA, Trial 2): 23%
Emax at 12.5 g/ha ([3]; 960 h, 40DAA, Trial 1): 5%
Emax at 12.5 g/ha ([3]; 960 h, 40DAA, Trial 2): 9%
Emax at 25 g/ha ([3]; 960 h, 40DAA, Trial 1): 5%
Emax at 25 g/ha ([3]; 960 h, 40DAA, Trial 2): 10%
Emax at 12.5 g/ha ([4]; 25DAA1, Trial 2): 29%
Emax at 12.5 g/ha ([4]; 30DAA1, Trial 2): 39%
Emax at 12.5 g/ha ([4]; 35DAA1, Trial 2): 22%
Emax at 12.5 g/ha ([4]; 40DAA2, Trial 2): 11%
Emax at 25 g/ha ([4]; 25DAA1, Trial 2): 69%
Emax at 25 g/ha ([4]; 30DAA1, Trial 2): 43%
Emax at 25 g/ha ([4]; 35DAA1, Trial 2): 14%
Emax at 25 g/ha ([4]; 40DAA2, Trial 2): 6%
Emax at 12.5 g/ha ([4]; 240 h, 10DAA, Trial 1): 47%
Emax at 25 g/ha ([4]; 240 h, 10DAA, Trial 1): 50%
Emax at 12.5 g/ha ([4]; 360 h, 15DAA, Trial 1): 21%
Emax at 25 g/ha ([4]; 360 h, 15DAA, Trial 1): 47%
Emax at 12.5 g/ha ([4]; 480 h, 20DAA, Trial 1): 31%
Emax at 25 g/ha ([4]; 480 h, 20DAA, Trial 1): 54%
Emax at 12.5 g/ha ([4]; 600 h, 25DAA, Trial 1): 60%
Emax at 25 g/ha ([4]; 600 h, 25DAA, Trial 1): 50%
Emax at 12.5 g/ha ([4]; 720 h, 30DAA, Trial 1): 47%
Emax at 25 g/ha ([4]; 720 h, 30DAA, Trial 1): 49%
Emax at 12.5 g/ha ([4]; 840 h, 35DAA, Trial 1): 41%
Emax at 25 g/ha ([4]; 840 h, 35DAA, Trial 1): 44%
Emax at 12.5 g/ha ([4]; 960 h, 40DAA, Trial 1): 28%
Emax at 25 g/ha ([4]; 960 h, 40DAA, Trial 1): 33%
